“Also recorded” adds a separate entry of the source. Non-standard residues stand in square brackets, D forms with d. Primed or numbered codes have the meaning given here. No end group written: not given here. PEG8′ = not defined here; Aib = CC(C)(N)C(=O)O
Experiments:
Type in all cases: physicochemical
[1] = AFM of self-assembly with or without magnetic field
Experimental: AFM was performed using the NX10 system (Park Systems, Korea) in a non-contact mode with PPP-NCHR AFM probes (Nanosensors, Switzerland). The peptide complex (specimen) dispersed in an aqueous solvent was placed between neodymium magnets and measurements were compared before and after the application of a magnetic field. The magnetic field intensity was measured using a Model 450 gaussmeter (Lake Shore Cryotronics, USA).
It was confirmed that the peptide complex according to the present disclosure is highly sensitive to a magnetic field and the α-helix structure can be controlled with a magnetic field. It was also investigated whether the self-assembly process of the peptide complex is affected by a magnetic field. The peptide complexes of Examples 51 and 99 were dissolved in aqueous solvents to induce self-assembly. The aqueous solvents were sonicated to prevent aggregation for clear observation. The aqueous solvent was placed in the equipment shown in FIG. 44f and measured by AFM after incubation overnight. The AFM measurement was also made before the treatment for comparison before and after the application of the magnetic field.

[2] = CD (circular dichroism) spectroscopy of α-helix structure; details: for θ222 nm/θ208 nm ratio: Table 11, peptide complexes of Examples 37-97; for [6]222/[θ]208 ratio: before magnetic field (CD), 20 μM in distilled water
Experimental: To evaluate the structures of a linear plasmid DNA and peptides, CD spectra were analyzed using a Chirascan CD spectrometer (Applied Photophysics, UK). […] The final concentration of the linear plasmid DNA was 30 ng/μL. All the samples were dissolved in H2O. For the formation of the artificial chromosome, a mixture of the peptide and the DNA was incubated for 12 days or longer. Scanning was performed using a 2-mm path-length cuvette. Each scan was repeated three times and averaged. MRE (mean residue ellipticity) was calculated based on the number of amino acid residues.
CD (circular dichroism) spectroscopy was performed as follows.
The CD spectra were analyzed using a Chirascan CD spectrometer (Applied Photophysics, UK). […] All the samples were dissolved in H2O. Each scan was repeated three times using a 2-mm path-length cuvette and averaged. MRE (mean residue ellipticity) was calculated based on the number of amino acid residues.

[3] = MCD (magnetic circular dichroism) under 1.6 T magnetic field; details: magnetic field of 1.6 T applied (MCD)
Experimental: MCD (magnetic circular dichroism) spectra were obtained using a Jasco-815 159-L spectrophotometer (Jasco, Japan). The concentration of the peptides was 20 μM in distilled water. Measurements were performed using a 2-mm path-length cuvette. The magnetic field of the permanent magnet in the MCD accessory (PM-491) was 1.6 T. Each scan was repeated three times and averaged.
MCD (magnetic circular dichroism) spectra were obtained using a Jasco-815 159-L spectrophotometer (Jasco, Japan). The concentration of the peptide complex was 20 μM in distilled water. Measurements were performed using a 2-mm path-length cuvette. The magnetic field of the permanent magnet in the MCD accessory (PM-491) was 1.6 T. Each scan was repeated three times and averaged.
MCD (magnetic circular dichroism) analysis was performed to investigate whether the helical stability of the αm peptide in the peptide complex according to the present disclosure is affected by the magnetic field. The peptide complexes of Examples 47 and 99 have partially stable α-helices. When a magnetic field of 1.6 T was applied to the peptide complexes of Examples 47 and 99 (FIGS. 44d, 44e), the contents of α-helices, i.e. the [θ]222/[6]208 ratios, were increased in both molecules. […]

[4] = AFM analysis of self-assembled peptide complexes; details: for Average diameter (nm) / AFM morphology: Table 12, self-assembled structure; for AFM morphology: 25 μM in distilled water
Experimental: AFM was performed using an NX10 system (Park Systems, Korea) in a non-contact mode with PPP-NCHR AFM probes (Nanosensors, Switzerland). The DNA concentration ranged from 1 to 30 ng/μL and the peptide concentration ranged from 1 to 32 μM (in H2O). 2 μL of the sample solution was cast onto a freshly cleaved mica surface and dried. The data obtained by the SmartScan program (Park Systems, Korea) was analyzed using the XEI program (Park Systems, Korea).
The CD spectroscopy was performed in the same manner as in Test Example 2 and the AFM was performed using the NX10 system (Park Systems, Korea) in a non-contact mode with PPP-NCHR AFM probes (Nanosensors, Switzerland). The peptide complex concentration ranged from 1 to 32 μM (in H2O). 2 μL of the sample solution was cast onto a freshly cleaved mica surface and dried. The data obtained by the SmartScan program (Park Systems, Korea) were analyzed using the XEI program (Park Systems, Korea).
The peptide complexes of Examples 37-40 were imaged by AFM. 25 μM of the peptide complex was dissolved in distilled water, sonicated for 5 minutes, incubated overnight and dropped on mica for measurement.

[5] = in the absence of the magnetic field
[6] = Table 9, linear and cyclic αm-PEG10 peptide complexes, in H2O

Question: Which self-assembled structure [1, 5] does the source give for WAUAUAUAUAU(PEG2)5 [Example 47] here?
Answer: Its self-assembled structure is “highly uniform micelle-like spherical self-assembled structures”.

Question: What about the self-assembled structure ([1]; magnetic field (0.07 T) applied) of the same substance?
Answer: The self-assembled structure was “anisotropic and unique planar nanostructures”.

Question: And the “[θ]222/[θ]208” value [2, 6]?
Answer: Its value is 0.84.

Question: What about the “θ222 nm/θ208 nm ratio” value [2] of the same substance?
Answer: Its value is 0.84.

Question: What about the “[6]222/[θ]208 ratio” value [2] of the same substance?
Answer: The value was 0.86.

Question: What about the “[6]222/[θ]208 ratio” value [3] of the same substance?
Answer: Its value is 0.91.

Question: With “RGDRGDRGDAUAUAUAUAUAUAUAUAUAUAR [Example 71]” as the substance, how does the “Average diameter (nm)” value [4] read?
Answer: Its value is 50-100 nm.

Question: And the AFM morphology [4]?
Answer: The AFM morphology was “Vesicle”.

Question: And the “θ222 nm/θ208 nm ratio” value [2]?
Answer: Its value is 1.12.

Question: For “RGDRGDAUAUAUAUAUAUAUAUAUAUAR [Example 70]”, which “Average diameter (nm)” value [4] is on record?
Answer: Its value is 50 nm.

Question: What about the AFM morphology [4] of the same substance?
Answer: The AFM morphology was “Vesicle”.

Question: And the “θ222 nm/θ208 nm ratio” value [2]?
Answer: Its value is 1.14.

Question: Which results are given for “EAUAUAUAUAUAUAUAUAUAUAGSGSGSGS (EA[Aib]A[Aib]A[Aib]A[Aib]A[Aib]A[Aib]A[Aib]A[Aib]A[Aib]A[Aib]AGSGSGSGS) [Example 95]”?
Answer: Average diameter (nm) [4]: 240-280 nm; AFM morphology [4]: Vesicle; θ222 nm/θ208 nm ratio [2]: 1.2

Question: Which results are given for “RAUAUAUAUAUAUAUAUAUAUARGDRGDRGDRGD [Example 65]”?
Answer: Average diameter (nm) [4]: 20 nm; AFM morphology [4]: Micelle; θ222 nm/θ208 nm ratio [2]: 0.94

Question: What does the source list for “EEEEAUAUAUAUAUAUAUAUAUAUA(PEG8)2 (EEEEAXAXAXAXAXAXAXAXAXAXA; (PEG8)2 C-terminal; SITE 6 2-aminoisobutyric acid; SITE 8 2-aminoisobutyric acid; SITE 10 2-aminoisobutyric acid; SITE 12 2-aminoisobutyric acid; SITE 14 2-aminoisobutyric acid; SITE 16 2-aminoisobutyric acid; SITE 20 2-aminoisobutyric acid; SITE 18 2-aminoisobutyric acid; SITE 22 2-aminoisobutyric acid; SITE 24 2-aminoisobutyric acid) [Example 93]”?
Answer: Average diameter (nm) [4]: 180-360 nm; AFM morphology [4]: Vesicle; θ222 nm/θ208 nm ratio [2]: 1.16

Question: Which results are given for “RAUAUAUAUAUAUAUAUAUAUAGRGDRGDRGDG [Example 66]”?
Answer: Average diameter (nm) [4]: 20-30 nm; AFM morphology [4]: Micelle; θ222 nm/θ208 nm ratio [2]: 0.91

Question: For “AUAUAUAUAUAUAUAUAUAUA(PEG8)2 [Example 54]”, which “Average diameter (nm)” value [4] is on record?
Answer: Its value is 20-90 nm.

Question: And the AFM morphology [4]?
Answer: Its AFM morphology is “Micelle, vesicle”.

Question: And the “θ222 nm/θ208 nm ratio” value [2]?
Answer: The value was 1.2.

Question: For “Example 37: peptide complex (Wαm-RGD), SEQ ID NO 37 (A[Aib]A[Aib]A[Aib]A[Aib]AGRGDRGDG)”, which AFM morphology [4] is on record?
Answer: Its AFM morphology is “Irregular vesicle”.

Question: And the “θ222 nm/θ208 nm ratio” value [2]?
Answer: Its value is 0.28.

Question: Which results are given for (PEG8)2 AUAUAUAUA [Example 55]?
Answer: AFM morphology [4]: Not assembled; θ222 nm/θ208 nm ratio [2]: 0.58

Question: With “(PEG8)2AUAUAUAUAUAUAUAUAUAUA(PEG8)2 [Example 125]” as the substance, how does the “self-assembly behavior in an aqueous solvent” value (“self-assembly behavior” below) ([4]; AFM) read?
Answer: Its value is “did not self-assemble”.

Question: What about the “[θ]222/[θ]208” value ([2]; Table 14, coil-rod-coil peptide complexes) of the same substance?
Answer: Its value is 1.21.

Question: What about the “[θ]222/[θ]203 ratio” value ([2]; depending on concentration) of the same substance?
Answer: The value was 1.1-1.2.

Question: Which average diameter ([4]; AFM) does the source give for “Example 40: peptide complex (Wαm-RGD), SEQ ID NO 40 (AXAXAXAXAXAXAXAXAXAXAGRGDRGDG; RGD peptides; SITE 2 2-aminoisobutyric acid; SITE 4 2-aminoisobutyric acid; SITE 6 2-aminoisobutyric acid; SITE 8 2-aminoisobutyric acid; SITE 10 2-aminoisobutyric acid; SITE 12 2-aminoisobutyric acid; SITE 14 2-aminoisobutyric acid; SITE 16 2-aminoisobutyric acid; SITE 18 2-aminoisobutyric acid; SITE 20 2-aminoisobutyric acid)” here?
Answer: Its average diameter is 20 nm.

Question: What about the “self-assembly behavior” value ([4]; AFM) of the same substance?
Answer: Its value is “self-assembled into spherical particles such as micelles; also recorded: micelle particles”.

Question: And the “length of micelle particles” value ([4]; AFM, FIG. 80)?
Answer: Its value is 7.2-12.4 nm.

Question: And the “Average diameter (nm)” value [4]?
Answer: The value was 20-30 nm.

Question: And the AFM morphology [4]?
Answer: The AFM morphology was “Micelle”.

Question: What about the “θ222 nm/θ208 nm ratio” value [2] of the same substance?
Answer: Its value is 0.99.

Question: And the “α-helix structure (in words)” value ([2]; from CD spectra)?
Answer: The value was “most perfect α-helix structure”.

Question: Which results are given for “RAUAUAUAUA(PEG8)2 (RA[Aib]A[Aib]A[Aib]A[Aib]A-{PEG8′-PEG8′-NH2}) [Example 58]”?
Answer: AFM morphology [4]: Not assembled; θ222 nm/θ208 nm ratio [2]: 0.36

Question: With “(PEG8)2 AUAUAUAUAUAUAUAUAUAUA [Example 57]” as the substance, how does the “Average diameter (nm)” value [4] read?
Answer: The value was 30-80 nm.

Question: And the AFM morphology [4]?
Answer: Its AFM morphology is “Vesicle”.

Question: And the “θ222 nm/θ208 nm ratio” value [2]?
Answer: The value was 1.22.

Question: Which “self-assembly behavior” value ([4]; AFM) does the source give for “RRRRAUAUAUAUAUAUAUAUAUAUA(PEG8)2 (RRRRAXAXAXAXAXAXAXAXAXAXA; (PEG8)2 C-terminal; SITE 6 2-aminoisobutyric acid; SITE 8 2-aminoisobutyric acid; SITE 10 2-aminoisobutyric acid; SITE 12 2-aminoisobutyric acid; SITE 14 2-aminoisobutyric acid; SITE 16 2-aminoisobutyric acid; SITE 18 2-aminoisobutyric acid; SITE 20 2-aminoisobutyric acid; SITE 22 2-aminoisobutyric acid; SITE 24 2-aminoisobutyric acid) [Example 63]” here?
Answer: The value was “self-assembles into spherical particles”.

Question: What about the “Average diameter (nm)” value [4] of the same substance?
Answer: The value was 20-50 nm.

Question: What about the AFM morphology [4] of the same substance?
Answer: Its AFM morphology is “Micelle”.

Question: And the “θ222 nm/θ208 nm ratio” value [2]?
Answer: The value was 1.03.

Question: For “RRAUAUAUAUAUAUAUAUAUAUAGRGDRGDRGDG (RRA[Aib]A[Aib]A[Aib]A[Aib]A[Aib]A[Aib]A[Aib]A[Aib]A[Aib]A[Aib]AGRGDRGDRGDG) [Example 68]”, which “Average diameter (nm)” value [4] is on record?
Answer: The value was 40-110 nm.

Question: What about the AFM morphology [4] of the same substance?
Answer: Its AFM morphology is “Vesicle”.

Question: What about the “θ222 nm/θ208 nm ratio” value [2] of the same substance?
Answer: The value was 0.89.

Question: Which “Average diameter (nm)” value [4] does the source give for “EEEAUAUAUAUAUAUAUAUAUAUA(PEG8)2 [Example 92]” here?
Answer: The value was 200 nm.

Question: What about the AFM morphology [4] of the same substance?
Answer: The AFM morphology was “Vesicle”.

Question: And the “θ222 nm/θ208 nm ratio” value [2]?
Answer: The value was 1.2.

Question: For RAUAUAUAUAUAUAUA(PEG8)2 [Example 59], which “Average diameter (nm)” value [4] is on record?
Answer: Its value is 160-410 nm.

Question: And the AFM morphology [4]?
Answer: The AFM morphology was “Vesicle”.

Question: What about the “θ222 nm/θ208 nm ratio” value [2] of the same substance?
Answer: The value was 0.77.

Question: Which results are given for WAUAUAUAUAU(PEG2)5 [Example 99]?
Answer: self-assembled structure [1, 5]: vesicle-like spherical self-assembled structures; self-assembled structure ([1]; magnetic field (0.25 T) applied): cruciform anisotropic nanostructures; [θ]222/[θ]208 [2, 6]: 0.93; [θ]222/[θ]208 ([2]; Table 13, cyclic peptide complexes): 0.93; [6]222/[θ]208 ratio [2]: 0.89; [6]222/[θ]208 ratio [3]: 1.01

From patent publication US20240424134A1, “PEPTIDE HAVING INDEPENDENTLY STABILIZED HYDROPHOBIC ALPHA HELIX, PEPTIDE COMPLEX COMPRISING SAME AND USES THEREOF” (UIF (University Industry Foundation), Yonsei University, priority 2022, published 2024)
